Results taken from patent US9249115B2, “N,N1 substituted piperazines having combined antiaggregant, anticoagulant and vasodilatory activity, and method for producing same” (Vertex Closed Joint Stock Company, priority 2011, dated 2016).

What was measured:
[1] = system: thrombocyte depleted plasm coagulation; test: Activated partial thromboplastin time (APTT), anticoagulant properties; type: biochemical, human; details: for APTT: thrombocyte depleted plasm
[2] = system: Ristocetin-induced thrombocyte aggregation; test: Ristocetin-induced thrombocyte aggregation, donor human thrombocyte enriched plasm; type: cell-based; details: ristocetin inductor; for MA (60 c), %: amplitude at 60 s
Procedure: The study of antiaggregant and anticoagulant properties of N,N′-substituted piperazines on the sample of donor human blood. The blood was collected by donor ulnar vein punction with dry sharp needle without syringe. The administration of drugs that influence on thrombocyte function was cancelled in 7÷10 days before the experiment.
In graduated plastic centrifuge tube 1 ml of 3.8% basic trisodium citrate solution with pH=7.4 was placed. The ulnar vein was punctuated, the freely effluent blood was collected up to 10 ml mark, the mixture was instantly stirred to prevent air bubbles appearance. The collected and stabilized blood was split in two 5 ml portions in two tubes.
To obtain thrombocyte enriched plasm the stabilized blood was spinned at 1000 rpm (150 g) for 8 min at room temperature. The repeated spinning of the blood at 3200 rpm (2300 g) for 20 min at 22° C. yielded thrombocyte depleted plasm.
The study of anticoagulant activity was done within 2 h after thrombocyte enriched plasm obtaining. The plasm was normalized to achieve thrombocyte concentration of 200-250×10^9/L by addition of thrombocyte-free plasm. The concentration of thrombocytes was measured on SOLAR AR 2110 analyzer.
Antiaggregant properties of N,N′-substituted piperazines were evaluated by their influence on thrombocyte aggregation in tests with ADP-, collagen- and ristocetin-induced aggregation. To dissolve N,N′-substituted piperazines and to dilute reagents Tris-HCl-buffer with pH=7.4 was used.
As the general characteristic of thrombocyte aggregation activity the maximum amplitude (MA) of aggregation was taken on. That is the peak value of transmittance coefficient of the sample after aggregation agent introduction expressed in % relative to the transmittance of thrombocyte-free plasm. The response was registered on ascending linear segment of aggregation curve for 16 s.
The measurements were done using 4-channel CHRONO-LOG 490-4D analyzer (CHRONO-LOG, USA). The temperature in the cell was 37° C., the spinning speed of magnetic stirrer was 1200 rpm.
In a cuvette 0.5 ml of N,N′-substituted piperazine solution was placed, then 0.4 ml of normalized thrombocyte plasm was added. The mixture was stirred and incubated at 37° C. for 5 min. The cuvette was placed in aggregometer, then 0.05 ml of aggregation inductor solution was added (ADP or collagen or ristocetin). Thrombocyte aggregation was measured for 3 min.
To study ristocetin-induced thrombocyte aggregation CHRONO-PAR RISTOCETIN reagent (CHRONO-LOG, USA) was diluted with buffer solution until ristocetin concentration reached 12 mg/ml. Thrombocyte aggregation amplitude was measured in 60 s after the beginning of the reaction.

mesentery venules = test: Vasodilator properties, microcirculatory vessel responsiveness to noradrenalin, venules; type: in vivo, Wistar male rats
Procedure: Vasodilator properties of N,N′-substituted piperazines were evaluated according to their influence on microcirculatory vessel responsiveness.
The studies were done on Wistar male rats with mass of 300±30 g (laboratory animals nursery “Rappolovo”, RAMS). The animals were kept with unlimited food (standard ration for laboratory rats K-120 by <<Inform-korm>>, Russia) and water allowance.
The solutions of N,N′-substituted piperazines and physiological (control) solution were introduced via bolus injection within 1 min into caudal vein of non-anaesthetized animals according to the dosage of 5.0 ml per 1 kg. Immediately after the introduction the animals were put in separate standard cages for observation.
In 30 min after the injection the animals were anaesthetized (thiopental sodium, 60 mg/kg intraperitoneally). The loop of small intestine adjoined to mesoappendix was retrieved through inferomedian incision. To study microcirculation in mesentery venules and arterioles in transmitted light the rat was placed on thermostated microscope objective table. The application of noradrenalin solution (Aguettant, 2 mg/ml, Laboratoire AGUETTANT, France) was done directly on the mesentery (Furness J. B., Marshall J. M., 1974; Yantareva L. I., 2004).
The study of microcirculatory vessels was done with LUMAM I1 microscope (LOMO, Russia). The recording of video data was done with the camera (Optics and Electronics ISTA Ltd) attached to a personal computer. The processing of data was done with Video-Test 4.0 software (ISTA Ltd., Russia). The diameter of the vessel wall (D, m) before and after the application of noradrenalin and the starting time of blood flow slowdown induced by noradrenalin were measured (the measurements were done for 1 min after the application).

[3] = system: ADP-induced thrombocyte aggregation; test: ADP-induced thrombocyte aggregation, donor human thrombocyte enriched plasm; type: cell-based; details: ADP inductor; for MA, %: human thrombocyte plasm
How it was run: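 Citrated donor human platelet-rich plasma, normalized to 200-250×10^9/L platelets, was preincubated with compound in Tris-HCl pH 7.4 for 5 min at 37 °C. Aggregation induced by ADP was followed for 3 min by light transmission with stirring at 1200 rpm. Maximum amplitude was taken as % transmittance relative to platelet-free plasma.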

[4] = system: Collagen-induced thrombocyte aggregation; test: Collagen-induced thrombocyte aggregation, donor human thrombocyte enriched plasm; type: cell-based; details: collagen inductor; for MA, %: human thrombocyte plasm
How it was run: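 Citrated donor platelet-rich plasma normalized to 200-250×10^9/L was preincubated with compound in Tris-HCl pH 7.4 for 5 min at 37° C. before adding collagen diluted to 10 µg/ml. Aggregation was followed turbidimetrically for 3 min at 1200 rpm stirring, as maximum amplitude (% transmittance relative to platelet-poor plasma).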

[5] = 0.01 mmol/kg, noradrenalin 10^−6 g/ml
[6] = 0.025 mmol/kg, noradrenalin 10^−7 g/ml
[7] = Homo sapiens, 1.25 mmol/L, read-out: (MA0-MAx): MA0 * 100%
[8] = Homo sapiens, 5.0 mmol/L, read-out: (MA0-MAx): MA0 * 100%
[9] = Homo sapiens, 7.5 mmol/L, read-out: (MA0-MAx): MA0 * 100%

O=C(O)/C=C/c1ccc(Cn2ccnc2)cc1 [Ozagrel, reference compound]
(APTTx-APTT0): APTT0 * 100% ([1]; 2.5 mmol/L): 7.2% | APTT ([1]; 2.5 mmol/L): 51.8 ± 1.7 s | (APTTx-APTT0): APTT0 * 100% ([1]; 4.1 mmol/L): 10.0% | APTT ([1]; 4.1 mmol/L): 53.1 ± 3.0 s | (APTTx-APTT0): APTT0 * 100% ([1]; 8.3 mmol/L): 19.9% | APTT ([1]; 8.3 mmol/L): 57.9 ± 2.5 s | (APTTx-APTT0): APTT0 * 100% ([1]; 12.5 mmol/L): 29.8% | APTT ([1]; 12.5 mmol/L): 62.7 ± 2.1 s | (MAx-MA0): MA0 * 100% (Ozagrel: (MA0-MAx): MA0 * 100%) ([2]; 1.25 mmol/L): 8.0% | MA (60 c), % ([2]; 1.25 mmol/L): 58.6 ± 9.1% | (MAx-MA0): MA0 * 100% (Ozagrel: (MA0-MAx): MA0 * 100%) ([2]; 2.5 mmol/L): 28.4% | MA (60 c), % ([2]; 2.5 mmol/L): 45.6 ± 9.5% | (MAx-MA0): MA0 * 100% (Ozagrel: (MA0-MAx): MA0 * 100%) ([2]; 5.0 mmol/L): 44.1% | MA (60 c), % ([2]; 5.0 mmol/L): 35.6 ± 8.5% | % of vessel constriction (mesentery venules; [5]): 44% | Blood flow slowdown, Latent period of slowdown (mesentery venules; [5]): 32 ± 4 s | % of vessel constriction (mesentery venules; [6]): 27% | Blood flow slowdown, Latent period of slowdown, s (mesentery venules; [6]): No slowdown | MA, % ([3]; 1.25 mmol/L): 12.9 ± 2.1% | MA, % ([3]; 2.50 mmol/L): 10.6 ± 2.5% | MA, % ([3]; 5.0 mmol/L): 9.6 ± 2.5% | MA, % ([3]; 7.5 mmol/L): 4.2 ± 1.2% | inhibition at 1250 µM [3, 7]: 2.3% | inhibition at 2500 µM ([3]; Homo sapiens, 2.50 mmol/L, read-out: (MA0-MAx): MA0 * 100%): 19.7% | inhibition at 5000 µM [3, 8]: 63.6% | inhibition at 7500 µM [3, 9]: 68.2% | MA, % ([4]; 0.5 mmol/L): 74.3 ± 7.9% | MA, % ([4]; 1.25 mmol/L): 64.1 ± 12.0% | MA, % ([4]; 2.5 mmol/L): 60.0 ± 2.5% | MA, % ([4]; 5.0 mmol/L): 54.0 ± 12.9% | MA, % ([4]; 7.5 mmol/L): 34.2 ± 11.2% | inhibition at 500 µM ([4]; Homo sapiens, 0.5 mmol/L, read-out: (MA0-MAx): MA0 * 100%): 3.1% | inhibition at 1250 µM [4, 7]: 16.4% | inhibition at 2500 µM ([4]; Homo sapiens, 2.5 mmol/L, read-out: (MA0-MAx): MA0 * 100%): 21.8% | inhibition at 5000 µM [4, 8]: 29.6% | inhibition at 7500 µM [4, 9]: 55.4%
